Laboratory results reported in US9255100B2 (BAYER INTELLECTUAL PROPERTY GMBH, priority 2010, dated 2016).

target: T1, N-terminally GST-tagged human full length recombinant Mps-1 kinase (Homo sapiens, UniProt P33981); assay: Mps-1 kinase assay (TR-FRET); format: biochemical; conditions: Mps1 IC50 [nM], 10 μM ATP, 1 μM peptide substrate, 60 min at 22° C.
T1 construct: N-terminally GST-tagged human full length recombinant Mps-1 kinase; purchased Invitrogen, Karslruhe, Germany PV4071
T1 sequence (P33981 1-857): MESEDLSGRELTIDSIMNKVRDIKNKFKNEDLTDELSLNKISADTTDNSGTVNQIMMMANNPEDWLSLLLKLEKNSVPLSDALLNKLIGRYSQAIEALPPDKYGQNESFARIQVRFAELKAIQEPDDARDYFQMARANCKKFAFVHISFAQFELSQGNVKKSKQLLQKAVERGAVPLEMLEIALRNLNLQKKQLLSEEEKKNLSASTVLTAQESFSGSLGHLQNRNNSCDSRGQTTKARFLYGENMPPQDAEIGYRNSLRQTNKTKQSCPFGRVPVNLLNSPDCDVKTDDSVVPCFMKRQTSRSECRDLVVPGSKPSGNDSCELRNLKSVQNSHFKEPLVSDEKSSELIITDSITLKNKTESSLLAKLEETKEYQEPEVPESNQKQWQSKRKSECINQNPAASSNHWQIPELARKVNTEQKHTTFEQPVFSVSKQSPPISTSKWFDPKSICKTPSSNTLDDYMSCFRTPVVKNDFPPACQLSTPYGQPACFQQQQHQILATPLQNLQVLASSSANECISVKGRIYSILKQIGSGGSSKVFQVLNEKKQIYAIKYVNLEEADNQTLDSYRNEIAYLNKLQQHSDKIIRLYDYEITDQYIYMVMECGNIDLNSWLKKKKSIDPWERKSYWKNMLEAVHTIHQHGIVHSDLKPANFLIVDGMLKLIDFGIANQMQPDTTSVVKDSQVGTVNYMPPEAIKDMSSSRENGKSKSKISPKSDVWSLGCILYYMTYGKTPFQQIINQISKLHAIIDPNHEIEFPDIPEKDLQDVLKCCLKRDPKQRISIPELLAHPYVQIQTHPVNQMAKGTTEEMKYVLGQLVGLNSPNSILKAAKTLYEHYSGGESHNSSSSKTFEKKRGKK
Procedure, shortened: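 GST-Mps-1 (full length, N-term tag) ~1 nM final, linear-range adjusted per lot; biotinylated peptide substrate. Detection: Eu-anti-pSer/Thr donor → SA-XLent acceptor TR-FRET, 1 h, 22° C. Inhibition of kinase activity.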

SMILES | IC50
Cc1cc(-c2cnc3c(NCC(C)(C)O)cc(Oc4cnn(C)c4)nn23)ccc1C(=O)NC1CC1 [Example 321, N-cyclopropyl-4-{8-[(2-hydroxy-2-methylpropyl)amino]-6-[(1-methyl-1H-pyrazol-4-yl)oxy]imidazo[1,2-b]pyridazin-3-yl}-2-methylbenzamide] | 0.6 nM
CNC(=O)c1ccc(-c2cnc3c(NCC4CCOCC4)cc(Oc4ccccc4C)nn23)cc1C [Example 568, N,2-dimethyl-4-{6-(2-methylphenoxy)-8-[(tetrahydro-2H-pyran-4-ylmethyl)amino]imidazo[1,2-b]pyridazin-3-yl}benzamide] | < 1 nM
Cc1cc(-c2cnc3c(NCC(C)(C)O)cc(Oc4ccnn4C)nn23)ccc1C(=O)NC1CC1 [Example 319, N-cyclopropyl-4-{8-[(2-hydroxy-2-methylpropyl)amino]-6-[(1-methyl-1H-pyrazol-5-yl)oxy]imidazo[1,2-b]pyridazin-3-yl}-2-methylbenzamide] | 121 nM
c1cc(-c2cc(NCC3CCCCO3)c3ncc(-c4ccc(-c5cnc(C6CC6)[nH]5)cc4)n3n2)ccn1 (racemic) [Example 29, (RS) 3-[4-(2-Cyclopropyl-1H-imidazol-5-yl)phenyl]-6-(pyridin-4-yl)-N-(tetrahydro-2H-pyran-2-ylmethyl)imidazo[1,2-b]pyridazin-8-amine] | 80.2 nM
CC(C)CNc1cc(Cl)nn2c(-c3ccc(C(=O)NC(C)C)cc3)cnc12 [Example 179, 4-{6-Chloro-8-[(2-methylpropyl)amino]imidazo[1,2-b]pyridazin-3-yl}-N-(propan-2-yl)benzamide] | 601 nM
Cc1cc(-c2cnc3c(NCC(C)(C)O)cc(Oc4cccc5ncccc45)nn23)ccc1C(=O)NC1CC1 [Example 167, N-cyclopropyl-4-{8-[(2-hydroxy-2-methylpropyl)amino]-6-(quinolin-5-yloxy)imidazo[1,2-b]pyridazin-3-yl}-2-methylbenzamide] | 2.3 nM
CCNC(=O)c1ccc(-c2cnc3c(NCC4CCOCC4)cc(Oc4ccc(OC)cc4)nn23)cc1C [Example 597, N-ethyl-4-{6-(4-methoxyphenoxy)-8-[(tetrahydro-2H-pyran-4-ylmethyl)a-mino]imidazo[1,2-b]pyridazin-3-yl}-2-methylbenzamide] | 1.1 nM
Cc1cc(-c2cnc3c(NCC(C)(C)O)cc(Oc4ccc(N5CCN(C(=O)OC(C)(C)C)CC5)cc4)nn23)ccc1C(=O)NC1CC1 [Example 322, tert-butyl 4-[4-({3-[4-(cyclopropyl-carbamoyl)-3-methyl-phenyl]-8-[(2-hydroxy-2-methylpropyl)amino]imidazo[1,2-b]pyridazin-6-yl}oxy)phenyl]piperazine-1-carboxylate] | 70.6 nM
CC(C)CNc1cc(Cl)nn2c(-c3ccc4c(NC5CC5)noc4c3)cnc12 [Example 183, 6-Chloro-3-[3-(cyclopropylamino)-1,2-benzoxazol-6-yl]-N-(2-methylpropyl)imidazo[1,2-b] pyridazin-8-amine] | 290 nM
CC(C)CNc1cc(-c2ccc(NC(=O)N(C)C)cc2)nn2c(-c3ccc(C(=O)NC4CC4)cc3)cnc12 [Example 150, N-cyclopropyl-4-(6-{4-[(dimethylcarbamoyl)amino]phenyl}-8-[(2-methylpropyl)amino]imidazo[1,2-b]pyridazin-3-yl)benzamide] | 3.7 nM
CCNC(=O)c1ccc(-c2cnc3c(NCCN4CCOCC4)cc(Oc4ccc(OC)cc4F)nn23)cc1C [Example 591, N-ethyl-4-[6-(2-fluoro-4-methoxyphenoxy)-8-{[2-(morpholin-4-yl)ethyl]amino}imidazo[1,2-b]pyridazin-3-yl]-2-methylbenzamide] | 2.5 nM
CNC(=O)c1ccc(-c2cnc3c(NCCN4CCOCC4)cc(Oc4ccc(OC)cc4F)nn23)cc1C [Example 565, 4-[6-(2-fluoro-4-methoxyphenoxy)-8-{[2-(morpholin-4-yl)ethyl]amino}imidazo[1,2-b]pyridazin-3-yl]-N,2-dimethylbenzamide] | 3.5 nM

Next, values leading:

IC50 | SMILES
0.4 nM | Cc1cc(-c2cnc3c(NCC4CCSCC4)cc(Sc4cccc(F)c4)nn23)ccc1C(=O)NC1CC1 [Example 285, N-cyclopropyl-4-{6-[(3-fluorophenyl)sulfanyl]-8-[(tetrahydro-2H-thiopyran-4-ylmethyl)amino]imidazo[1,2-b]pyridazin-3-yl}-2-methylbenzamide]
0.7 nM | Cc1cc(-c2cnc3c(NCCS(=O)(=O)O)cc(Oc4cccc(F)c4)nn23)ccc1C(=O)NC1CC1 [Example 548, 2-({3-[4-(cyclopropylcarbamoyl)-3-methylphenyl]-6-(3-fluorophenoxy)imidazo[1,2-b]pyridazin-8-yl}amino)ethanesulfonic acid]
0.4 nM | Cc1cc(-c2cnc3c(NCC(C)(C)O)cc(Nc4ccccc4F)nn23)ccc1C(=O)NC1CC1 [Example 384, N-cyclopropyl-4-{6-[(2-fluorophenyl)amino]-8-[(2-hydroxy-2-methylpropyl)amino]imidazo[1,2-b]pyridazin-3-yl}-2-methylbenzamide]
< 1 nM | Cc1cc(-c2cnc3c(NCCC(F)(F)F)cc(-c4ccc(F)cc4)nn23)ccc1C(=O)NC1CC1 [Example 28, N-cyclopropyl-4-{6-(4-fluorophenyl)-8-[(3,3,3-trifluoropropyl)amino]imidazo[1,2-b]pyridazin-3-yl}-2-methylbenzamide]
0.4 nM | Cc1cc(-c2cnc3c(NCCC(F)(F)F)cc(Cc4cccc(Br)c4)nn23)ccc1C(=O)NC1CC1 [Example 485, 4-{6-(3-bromobenzyl)-8-[(3,3,3-trifluoropropyl)amino]imidazo [1,2-b]pyridazin-3-yl}-N-cyclo-propyl-2-methylbenzamide]
0.8 nM | Cc1cc(-c2cnc3c(NCCC(F)(F)F)cc(SC4CCCCC4)nn23)ccc1C(=O)NC1CC1 [Example 171, 4-{6-(cyclohexylsulfanyl)-8-[(3,3,3-trifluoropropyl)amino]imidazo [1,2-b]pyridazin-3-yl}-N-cyclopropyl-2-methylbenzamide]
0.4 nM | Cc1cc(-c2cnc3c(NCC4CCS(=O)(=O)CC4)cc(Oc4ccc(F)cc4)nn23)ccc1C(=O)NC1CC1 [Example 295A, N-cyclopropyl-4-[8-{[(1,1-dioxidotetrahydro-2H-thiopyran-4-yl)methyl]amino}-6-(4-fluorophenoxy)imidazo[1,2-b]pyridazin-3-yl]-2-methylbenzamide]
2.1 nM | Cc1cc(-c2cnc3c(NCC4(C)CCCO4)cc(-c4ccncc4)nn23)ccc1C(=O)NC1CC1 (racemic) [Example 30, (RS)—N-cyclopropyl-2-methyl-4-[8-{[(2-methyltetrahydrofuran-2-yl)methyl]amino}-6-(pyridin-4-yl)imidazo[1,2-b]pyridazin-3-yl]benzamide]
7.5 nM | Cc1cc(-c2cnc3c(NCCC(F)(F)F)cc(Oc4cccc5ccc(=O)[nH]c45)nn23)ccc1C(=O)NC1CC1 [Example 468, N-cyclopropyl-2-methyl-4-{6-[(2-oxo-1,2-dihydro-quinolin-8-yl)oxy]-8-[(3,3,3-trifluoropropyl)amino]imidazo[1,2-b]pyridazin-3-yl} benzamide]
0.1 nM | Cc1cc(-c2cnc3c(NCCC(F)(F)F)cc(Oc4ccccc4O)nn23)ccc1C(=O)NC1CC1 [Example 280, N-cyclopropyl-4-{6-(2-hydroxyphenoxy)-8-[(3,3,3-trifluoropropyl)amino]imidazo[1,2-b]pyridazin-3-yl}-2-methylbenzamide]
0.3 nM | Cc1ccc(Cl)cc1Nc1cc(NCCC(F)(F)F)c2ncc(-c3ccc(C(=O)NC4CC4)c(C)c3)n2n1 [Example 377, 4-{6-[(5-chloro-2-methylphenyl)amino]-8-[(3,3,3-trifluoropropyl)amino]imidazo[1,2-b]pyridazin-3-yl}-N-cyclopropyl-2-methylbenzamide]
0.2 nM | Cc1cc(F)cc(Oc2cc(NCC(C)(C)O)c3ncc(-c4ccc(C(=O)NC5CC5)c(C)c4)n3n2)c1 [Example 87, N-cyclopropyl-4-{6-(3-fluoro-5-methylphenoxy)-8-[(2-hydroxy-2-methylpropyl)amino]imidazo[1,2-b]pyridazin-3-yl}-2-methylbenzamide]
6.1 nM | Cc1cc(-c2cnc3c(NCC(C)(C)O)cc(-c4cncc(C#N)c4)nn23)ccc1C(=O)NC1CC1 [Example 234, 4-{6-(5-cyanopyridin-3-yl)-8-[(2-hydroxy-2-methylpropyl)amino]imidazo[1,2-b]pyridazin-3-yl}-N-cyclopropyl-2-methylbenzamide]
1.2 nM | CC(C)(O)CNc1cc(-c2ccccc2)nn2c(-c3ccc(C(=O)NC4CC4)cc3)cnc12 [Example 14, N-cyclopropyl-4-{8-[(2-hydroxy-2-methylpropyl)amino]-6-phenylimidazo[1,2-b]pyridazin-3-yl}benzamide]
